Data published in PubChem BioAssay AID330 (DTP/NCI, 2004).
Values joined by “and” are separate entries in the source; they are usually repeats but may differ in a detail not shown here. Equal entries are not always repeated. Inconclusive results and toxic doses are left out. How the source made its calls: active means survival T/C of 150% or more; inactive means T/C below 125% in these data. Square brackets hold non-standard residues; d marks the D form. Peptide text beside a SMILES is read from it. Abu = CC[CH](N)C(=O)O

Test system: P388 leukemia ip, CD2F1 mice, survival T/C
Experiment: NCI In Vivo Anticancer Drug Screen. Data for tumor model P388 Leukemia (intraperitoneal) in CD2F1 (CDF1) mice
Details: endpoint: median survival time, higher = longer survival
How it was run: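 Mice carrying the transplanted tumor received test compound or vehicle. Survival was recorded in each group, and the value is the treated-group measurement divided by that of the vehicle-treated control group.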

[1] = dose: 50.0 mg/kg/injection, schedule: Q01DX005 (ip), vehicle: saline with Tween-80
[2] = dose: 100.0 mg/kg/injection, schedule: Q01DX005 (ip), vehicle: saline with Tween-80
[3] = dose: 200.0 mg/kg/injection, schedule: Q01DX005 (ip), vehicle: saline with Tween-80
[4] = dose: 12.5 mg/kg/injection, schedule: Q01DX009 (ip), vehicle: saline
[5] = dose: 25.0 mg/kg/injection, schedule: Q01DX009 (ip), vehicle: saline
[6] = dose: 50.0 mg/kg/injection, schedule: Q01DX009 (ip), vehicle: saline with Tween-80
[7] = dose: 100.0 mg/kg/injection, schedule: Q01DX009 (ip), vehicle: saline with Tween-80
[8] = dose: 200.0 mg/kg/injection, schedule: Q01DX009 (ip), vehicle: saline with Tween-80
[9] = dose: 100.0 mg/kg/injection, schedule: Q04DX003 (ip), vehicle: Klucel (hydroxypropylcellulose) (HPC)
[10] = dose: 200.0 mg/kg/injection, schedule: Q04DX003 (ip), vehicle: Klucel (hydroxypropylcellulose) (HPC)
[11] = dose: 400.0 mg/kg/injection, schedule: Q04DX003 (ip), vehicle: Klucel (hydroxypropylcellulose) (HPC)
[12] = dose: 12.5 mg/kg/injection, schedule: Q01DX005 (ip), vehicle: Klucel (hydroxypropylcellulose) (HPC)
[13] = dose: 50.0 mg/kg/injection, schedule: Q01DX009 (ip), vehicle: Klucel (hydroxypropylcellulose) (HPC)
[14] = dose: 100.0 mg/kg/injection, schedule: Q01DX009 (ip), vehicle: Klucel (hydroxypropylcellulose) (HPC)
[15] = dose: 200.0 mg/kg/injection, schedule: Q01DX009 (ip), vehicle: Klucel (hydroxypropylcellulose) (HPC)

Measured: T/C

C[CH2][Sn]1([CH2]C)[O]C(=O)CCCCC(=O)[O]1
inactive: dose: 12.5 mg/kg/injection, schedule: Q04DX003 (ip), vehicle: saline 115 % of control

CN(Cc1cnc2nc(N)nc(N)c2n1)c1ccc(C(=O)NC(CCC(=O)OC(C)(C)C)C(=O)O)cc1 (stereo not given)
active: dose: 5.0 mg/kg/injection, schedule: Q03HX024 (ip), vehicle: sodium bicarbonate 156 % of control | dose: 10.0 mg/kg/injection, schedule: Q03HX024 (ip), vehicle: sodium bicarbonate 182 % of control | dose: 20.0 mg/kg/injection, schedule: Q03HX024 (ip), vehicle: sodium bicarbonate 230 % of control | dose: 40.0 mg/kg/injection, schedule: Q03HX024 (ip), vehicle: sodium bicarbonate 269 % of control | dose: 80.0 mg/kg/injection, schedule: Q03HX024 (ip), vehicle: sodium bicarbonate 153 % of control
inactive: dose: 20.0 mg/kg/injection, schedule: Q04DX003 (ip), vehicle: sodium bicarbonate 122 % of control

C/C(=N\NC(=S)N1CCC(C2CCN(C(=S)N/N=C(\C)c3ccccn3)CC2)CC1)c1ccccn1
inactive: [1] 112 % of control and 97 % of control | [2] 114 % of control and 122 % of control | [3] 118 % of control | dose: 400.0 mg/kg/injection, schedule: Q01DX005 (ip), vehicle: saline with Tween-80 120 % of control

CC(=O)OC1C(OC(C)=O)C2C(C)CC3OC(=O)C(C)C3CC2(C)C1OC(C)=O (stereo not given)
inactive: dose: 6.25 mg/kg/injection, schedule: Q01DX009 (ip), vehicle: saline 110 % of control | [4] 103 % of control | dose: 25.0 mg/kg/injection, schedule: Q01DX009 (ip), vehicle: saline with Tween-80 100 % of control (2×) and 123 % of control | [5] 113 % of control | [6] 100 % of control and 121 % of control and 97 % of control | [7] 103 % of control and 104 % of control and 93 % of control | [8] 96 % of control | dose: 400.0 mg/kg/injection, schedule: Q01DX009 (ip), vehicle: saline with Tween-80 96 % of control

C=CCSc1nc2ccc(N=Cc3ccccc3O)cc2s1
inactive: [9] 88 % of control | [10] 91 % of control | [11] 92 % of control

COc1ccc2c(c1)C=C([N+](=O)[O-])C(N1CCOCC1)O2 (stereo not given)
inactive: [12] 106 % of control | dose: 25.0 mg/kg/injection, schedule: Q01DX005 (ip), vehicle: Klucel (hydroxypropylcellulose) (HPC) 108 % of control | dose: 50.0 mg/kg/injection, schedule: Q01DX005 (ip), vehicle: Klucel (hydroxypropylcellulose) (HPC) 101 % of control and 109 % of control

CCCCC(CC)CN=Cc1c(O)c(O)c(C(C)C)c2cc(C)c(-c3c(C)cc4c(C(C)C)c(O)c(O)c(C=NCC(CC)CCCC)c4c3O)c(O)c12 (stereo not given)
inactive: [1] 93 % of control | [2] 88 % of control | [3] 86 % of control

CCOC(OCC)c1ccc([N+](=O)[O-])cc1
inactive: dose: 100.0 mg/kg/injection, schedule: Q04DX003 (ip), vehicle: saline with Tween-80 106 % of control | dose: 200.0 mg/kg/injection, schedule: Q04DX003 (ip), vehicle: saline with Tween-80 100 % of control | dose: 400.0 mg/kg/injection, schedule: Q04DX003 (ip), vehicle: saline with Tween-80 117 % of control

O=S(=O)(c1ccc(NC(=S)NCc2cccnc2)cc1)N1CCCCC1
inactive: [13] 92 % of control | [14] 93 % of control | [15] 95 % of control

CN(C)CCCOC1(Cc2ccc(F)cc2)CCCCCC1
inactive: [1] 102 % of control | [2] 102 % of control

O=C1OC(c2ccccc2)N/C1=C\c1ccc(OCc2ccccc2)c(OCc2ccccc2)c1 (stereo not given)
inactive: [9] 94 % of control | [10] 87 % of control | [11] 90 % of control

CCC(N)C(=O)NC(C(N)=O)C(C)C (stereo not given) (H-[Abu]-Val-NH2; configuration not given here)
inactive: dose: 50.0 mg/kg/injection, schedule: Q01DX005 (ip), vehicle: saline 102 % of control | dose: 100.0 mg/kg/injection, schedule: Q01DX005 (ip), vehicle: saline 101 % of control | dose: 200.0 mg/kg/injection, schedule: Q01DX005 (ip), vehicle: saline 104 % of control

Cc1ccc(NC(=O)N2c3ccccc3SC23CCCCC3)c(C)c1
inactive: [6] 102 % of control | [7] 105 % of control | [8] 103 % of control

O=S1(=O)CS(=O)(=O)OCCCO1
active: dose: 6.25 mg/kg/injection, schedule: Q01DX005 (ip), vehicle: Klucel (hydroxypropylcellulose) (HPC) 151 % of control | [12] 169 % of control

CCCCN1C(=S)NC(OC)C1(C)C (stereo not given)
inactive: dose: 50.0 mg/kg/injection, schedule: Q01DX009 (ip), vehicle: suspension in saline 100 % of control | dose: 100.0 mg/kg/injection, schedule: Q01DX009 (ip), vehicle: suspension in saline 94 % of control | dose: 200.0 mg/kg/injection, schedule: Q01DX009 (ip), vehicle: suspension in saline 100 % of control

Nc1cccc2nccn12
inactive: [4] 105 % of control | [5] 102 % of control | dose: 50.0 mg/kg/injection, schedule: Q01DX009 (ip), vehicle: saline 104 % of control and 95 % of control

CCCCCC(O)C1C(=O)OC(C)C(O)/C=C/C=C/C=C/C=C/C=C(\C)C(O)C(O)C(O)CC(O)CC(O)CC(O)CC(O)CC1O (stereo not given)
inactive: dose: 0.5 mg/kg/injection, schedule: Q01DX010 (ip), vehicle: saline 100 % of control | dose: 1.0 mg/kg/injection, schedule: Q01DX010 (ip), vehicle: saline 100 % of control | dose: 2.0 mg/kg/injection, schedule: Q01DX010 (ip), vehicle: saline 100 % of control and 90 % of control | dose: 4.0 mg/kg/injection, schedule: Q01DX010 (ip), vehicle: saline 90 % of control | dose: 8.0 mg/kg/injection, schedule: Q01DX010 (ip), vehicle: saline 100 % of control

S=C(Nc1ccc(Cl)c(Cl)c1)Nc1ccccc1SCc1cc(Cl)cc2c1OCOC2
inactive: [13] 96 % of control | [14] 88 % of control | [15] 98 % of control

CC(C)(C)c1ccc(C(=O)Nc2ccc(S(N)(=O)=O)cc2)cc1
inactive: [13] 100 % of control | [14] 100 % of control | [15] 101 % of control

CCc1cnc(=S)n(-c2ccccc2)c1
inactive: dose: 100.0 mg/kg/injection, schedule: Q01DX001 (ip), vehicle: saline with Tween-80 99 % of control | dose: 200.0 mg/kg/injection, schedule: Q01DX001 (ip), vehicle: saline with Tween-80 95 % of control

O=C1C(Cl)=C(NCCO)C(=O)c2ccccc21
inactive: dose: 25.0 mg/kg/injection, schedule: Q01DX009 (ip), vehicle: Klucel (hydroxypropylcellulose) (HPC) 101 % of control | [13] 106 % of control | [14] 112 % of control | [15] 102 % of control
